# Reference: the METLIN SMRT retention time set (Domingo-Almenara et al. 2019)
# Assay: gradient 5% acetonitrile 3 min, to 50% in 2 min, to 85% in 15 min, held 3 min, 100 µL/min
# Conditions: column: Zorbax Extend-C18 2.1 x 50 mm; eluents: water / acetonitrile, 0.1% formic acid
# Outline: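 The system's dead and dwell volumes were 40 μL and 900 μL, with a Zorbax Extend-C18 column (2.1 × 50 mm, 1.8 μm) run at 100 μL/min in water and acetonitrile containing 0.1% formic acid each. Pure standards were analyzed in mixtures of ~100 molecules by HPLC–quadrupole time-of-flight mass spectrometry in positive and negative ionization mode. Retention time was assigned from computationally picked, manually inspected adduct peaks.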
row,Structure (SMILES),RP-LC retention time
1,Fc1ccc(CN2CCO[C@@H](COc3ccccn3)[C@@H]2c2ccccc2)c(F)c1,894 s
2,CCn1nccc1-c1cccc(-c2noc(-c3ccc(CS(=O)(=O)c4ccccc4)cc3)n2)c1,1160 s
3,CCCNC(=O)N(C1CCOCC1)C1CCN(C(=O)c2cccs2)CC1,657 s
4,O=C(NCCn1c(=O)n(Cc2ccccc2)c2cccnc21)c1cccs1,744 s
5,CC(C)NC(=O)N(C1CCOCC1)C1CN(C(=O)c2cncc(Br)c2)C1,604 s
6,O=C(NCCc1ccco1)c1ccc2ccnc(N3CCN(c4ccc(Cl)cc4)CC3)c2c1,887 s
7,O=C(NCCc1ccco1)c1ccc2c(c1)nc1n2CCCCC1,611 s
8,CCOC(=O)C1CCN(C(=O)Cc2csc(NC(=O)c3ccco3)n2)CC1,649 s
9,O=C(Nc1ccc(F)cc1Cl)C1CCc2nc(N3CCOCC3)ncc2C1 (centres undefined),793 s
10,CN(C(=O)Cn1nc2n(c1=O)CCCC2)c1ccccc1,632 s
11,COCC(=O)N1CCN(C2CCN(CCC(C)C)C2=O)CC1 (centres undefined),535 s
12,COc1cccc(CN2CC=C(C(=O)N3CCN(c4ccccc4)CC3)CC2)c1,664 s
13,CCOC(=O)c1c(C)[nH]c(CCC(=O)NCc2cccs2)c1C,746 s
14,COc1cccc(C2(C(N)=O)CC2)c1,688 s
15,CC(C)NC(=O)N(CC(=O)N1CCc2sccc2C1COc1ccccc1)C(C)C (centres undefined),892 s
16,Cc1nnc2ccc(NC3CC3)nn12,628 s
17,COc1ccc(-n2ccn3c(CCC(=O)NCCc4c[nH]c5ccccc45)nnc3c2=O)cc1,704 s
18,Cc1cc(-c2nnc(C3CCC3)o2)c(C)n1CC(=O)NCc1cccc(C(F)(F)F)c1,937 s
19,O=C(Nc1ccccc1F)C(=O)c1ccc[nH]1,858 s
20,O=c1c2cc(-c3ccc(F)cc3)nn2cnn1Cc1nc(-c2cccc(C(F)(F)F)c2)no1,1200 s
21,CC(C)Cc1nc(-c2ccccc2)oc1CC(=O)NCc1cccc(Cl)c1,1090 s
22,NS(=O)(=O)c1ccc(CCNC(=O)c2nc(Cn3nc(-c4ccc(F)cc4)ccc3=O)no2)cc1,733 s

row,Structure (SMILES),RP-LC retention time
1,CC(C)CC(=O)N1CCC(COc2ccc(C(=O)NC(C)C)cc2)CC1,801 s
2,CCCn1c(C)cnc1C1CN(C(=O)C(C)C)C1,553 s
3,Cc1oc(-c2[nH]ncc2C(=O)N2CCCC2)cc1S(=O)(=O)N1CCOCC1,619 s
4,O=C(NCCc1c[nH]c2ccccc12)C1CCCN(c2ccc(-n3ccnc3)nn2)C1 (centres undefined),568 s
5,CN(C)c1ccc(C(=O)NCCCCCCC(=O)NO)cc1,631 s
6,CC1(C)C(=O)N(CC(=O)Nc2c3c(nc4ccccc24)CCCC3)c2ccccc21,664 s
7,Fc1cc(-c2cccc3ncc(-c4cnn(C5CCNCC5)c4)nc23)cc(F)c1CN1CCOCC1,611 s
8,CC(C)OCCCNC(=O)C1CCCN(c2nc3ccccc3n(Cc3ccccc3)c2=O)C1 (centres undefined),1070 s
9,Cc1ccc(Nc2c(-c3ccc(C)cc3)nc3ccccn23)cc1,741 s
10,COc1ccc2c(c1)C1(CCN(C(=O)NC3CCCCC3)C1)C(=O)N2C (centres undefined),778 s
11,Cc1noc(C)c1S(=O)(=O)N1CCC(c2noc(-c3ccccn3)n2)C1 (centres undefined),794 s
12,O=S(=O)(c1cccnc1)N1CCCCC1c1nncn1CC1CC1 (centres undefined),662 s
13,CCc1cccc(C)c1N(C(=O)Cn1c(CC)nc2ccccc21)C(C)COC (centres undefined),776 s
14,CCCN(CC1CCOC1)C(=O)c1ccc(F)c(F)c1 (centres undefined),787 s
15,O=C(Nc1c(-c2ccccc2)nc2ccccn12)c1ccccc1F,638 s
16,CCc1nnc(-c2nnc(NCCOc3ccccc3OC)c3ccccc23)o1,790 s
17,CCOC(=O)CNC(=O)Nc1ccc(CCc2nc3ccccc3[nH]2)cc1,606 s
18,CCc1ccc(NC(=O)N2CCC(CC(=O)N3CCCCC3)CC2)cc1,833 s
19,Oc1ccc(-c2ccc(F)cc2)cc1CNC1CCCCC1,712 s
20,CCOC(=O)C1CCN(C(=O)C2CCN(c3cnc4nccnc4c3)CC2)CC1,663 s
21,O=C(O)c1cccc(Nc2c(-c3cccc(O)c3)nc3cnccn23)c1,633 s
22,CC1(C)CC(=O)C2=C(C1)N(CC1CCCO1)C(=O)C2(NC(=O)c1cccnc1)C(F)(F)F (centres undefined),719 s

# Now from value to compound:
row,RP-LC retention time,Structure (SMILES)
1,676 s,CCN1CCCn2cc(S(=O)(=O)NCc3ccc(C)o3)cc2C1=O
2,664 s,CCN1CCCC1CNC(=O)C1CCN(S(=O)(=O)c2ccc3c(ccn3CC)c2)CC1 (centres undefined)
3,953 s,Cc1ccc(NC(=O)CN2C(=O)CCCc3cc(S(=O)(=O)N4CCCCC4)ccc32)cc1F
4,702 s,CN(C)c1nc2cc(C(=O)NCC3CC3)sc2n1-c1ccccc1
5,710 s,Cc1cc2[nH]c(C(=O)Nc3ccc(F)cc3F)c(CN3CCOCC3)c2s1
6,779 s,O=C(CCS(=O)(=O)c1ccccc1)N1CCCc2ccccc21
7,764 s,CCN1CCn2cc(S(=O)(=O)Nc3cc(Cl)ccc3OC)cc2C1=O
8,709 s,COc1cc2c(Oc3ccc4[nH]c(C)cc4c3F)ncnc2cc1OCCCN1CCCC1
9,1080 s,O=C(c1nnc(-c2ccc(S(=O)(=O)N3CCCCC3)cc2)o1)N1CCc2ccccc2C1
10,703 s,O=C(Cn1cnc2nc3c(cc2c1=O)CCCC3)Nc1ccccc1F
11,640 s,COc1ccc(-c2nc3ncccn3c2Nc2ccc(OC)c(OC)c2)cc1
12,578 s,COc1ccc2nc(N3CCC(C(=O)N4CCN(c5ccccn5)CC4)CC3)sc2c1
13,1120 s,CCCS(=O)(=O)N1CCC2(CC1)C(=O)N(c1cccc(F)c1)C2c1ccccc1 (centres undefined)
14,860 s,COc1ccc(OC)c(S(=O)(=O)N2CCCN(C)c3ccccc32)c1
15,1140 s,CCCn1c(=O)c(C)nc2cc(-c3noc(-c4cccc(OC)c4OC)n3)ccc21
16,797 s,COc1ccc(-c2noc(Cn3ccn(-c4c(C)cccc4C)c(=O)c3=O)n2)cc1OC
17,740 s,O=C(Nc1ccc(Cl)cc1F)C1CCCN(C(=O)c2cc(-c3ccccn3)n[nH]2)C1 (centres undefined)
18,814 s,O=C(Nc1nnc(-c2ccc(Cl)s2)o1)c1ccc(S(=O)(=O)N2CCCC2)cc1
19,884 s,COc1ccc2[nH]c3c(c2c1)CCN1C(=O)N(c2ccccc2OC)C(=O)C31C (centres undefined)
20,771 s,COc1ccccc1NC(=O)N1CCN(Cc2nc3cc(Cl)ccc3o2)CC1
21,652 s,Cc1cc2oc(C(=O)NCC(c3cccs3)N(C)C)cc(=O)c2cc1Cl (centres undefined)
22,1110 s,Cc1cccc(S(=O)(=O)N2CCC(c3noc(-c4cccc(F)c4)n3)CC2)c1
23,838 s,CCCN1C(=O)c2ccccc2C(C(=O)NC2CCCCC2)C1c1cc(OC)c(OC)c(OC)c1 (centres undefined)

row,RP-LC retention time,Structure (SMILES)
1,769 s,CCn1ccc2sc(C)c(C(=O)NCc3ccc4c(c3)OCO4)c2c1=O
2,758 s,Cc1cccc(C)c1NC(=O)Cn1cnc2nc3c(cc2c1=O)CC(C)CC3 (centres undefined)
3,948 s,COc1ccc(-n2c(=O)n(C)c(=O)c3cc(C(=O)Nc4ccc(F)c(F)c4)cnc32)cc1
4,706 s,COC(=O)c1c(NCc2c(C)noc2C)c2cccc(Cl)c2[nH]c1=O
5,650 s,CCOc1nccnc1N1CCC(NC(=O)c2ccc(C#N)cc2)C1 (centres undefined)
6,702 s,COc1ccc(S(=O)(=O)N2CCCC(C(=O)NC3CC3)C2)cc1OC (centres undefined)
7,897 s,CCc1noc(NC(C)=O)c1-c1ccc(C)c(S(=O)(=O)Nc2cccc(C)c2C)c1
8,745 s,O=S(=O)(c1ccc2nncn2c1)N(Cc1ccccc1F)c1ccc2c(c1)OCCO2
9,575 s,Cc1cc(Cc2ccc(S(=O)(=O)N3CCN(C)CC3)cc2)c(=O)[nH]n1
10,978 s,Cn1ncc2c(Nc3cccc(Cl)c3)nc(N3CCCC3)nc21
11,885 s,O=C(Cn1cnc2nc(N3CCC(C(=O)NC4CC4)CC3)sc2c1=O)Nc1ccccc1F
12,926 s,CCOc1cc(=O)n2c(c1C(=O)OCc1cccc(C)c1)CCCC2
13,826 s,CCc1ccccc1N1C(=O)CN(S(=O)(=O)CC)CC1(C)C(=O)NC1CCCC1 (centres undefined)
14,648 s,Cn1nc2n(c1=O)CCC(NS(=O)(=O)c1cccc3cccnc13)CC2 (centres undefined)
15,1070 s,CC(C)c1noc(-c2cc(=O)n(CC(=O)Nc3cccc(Cl)c3)c3ccccc23)n1
16,606 s,Cc1ccccc1CN1C[C@@H]2C(=O)N(CCCN3CCCC3=O)C(=O)[C@@H]2C1
17,838 s,COC(=O)c1cc(OCC(=O)Nc2cc(F)ccc2F)c2ccccc2n1
18,729 s,NS(=O)(=O)c1ccc(NC(=O)c2ccc(Br)cc2F)cc1
19,627 s,Cc1ccc(C)c2c(=O)c3c([nH]c12)CCN(CC(=O)Nc1ccccc1)C3
20,768 s,O=C1COc2cc(S(=O)(=O)N3CCCC3C(=O)Nc3ccccc3)c(Cl)cc2N1 (centres undefined)
21,1050 s,Cc1ccc(CNC(=O)C2(C)CCN(S(=O)(=O)c3ccc(C)c(C)c3)CC2)cc1
22,1160 s,Cc1ccc(Cn2c(N3CCCC(C(=O)Nc4cc(C)cc(C)c4)C3)nc3ccsc3c2=O)cc1 (centres undefined)
